{"source": "patent US6034108A", "about": "“Method for treating mental retardation” (Eli Lilly and Company, priority 1998, dated 2000)", "key": {"[1]": {"molecular_target": "T1, m2 receptors in brain stem (Rattus norvegicus, UniProt P10980)", "T1 sequence (P10980 1-466)": "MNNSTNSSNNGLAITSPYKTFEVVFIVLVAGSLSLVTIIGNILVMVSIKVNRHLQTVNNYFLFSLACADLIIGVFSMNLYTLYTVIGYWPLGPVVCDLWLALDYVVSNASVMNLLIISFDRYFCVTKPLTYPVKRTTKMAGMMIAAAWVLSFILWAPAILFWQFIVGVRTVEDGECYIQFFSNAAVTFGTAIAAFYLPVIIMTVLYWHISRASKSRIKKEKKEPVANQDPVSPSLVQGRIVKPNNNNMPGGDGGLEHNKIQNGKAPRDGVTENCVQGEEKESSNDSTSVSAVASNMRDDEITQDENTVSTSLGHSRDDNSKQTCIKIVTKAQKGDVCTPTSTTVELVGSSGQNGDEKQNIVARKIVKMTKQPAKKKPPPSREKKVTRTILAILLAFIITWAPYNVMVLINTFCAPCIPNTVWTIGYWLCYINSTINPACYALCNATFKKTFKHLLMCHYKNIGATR", "test": "3H-guinuclidinyl benzilate binding to m2 receptors in brain stem"}, "m4 receptors": {"test_system": "m4 receptors", "test": "cAMP formation in CHO m4 cells treated with pertussis toxin", "format": "cell-based", "source_text": "Muscarinic agonists stimulate the formation of cAMP up to 10 fold in CHO m4 cells treated with pertussisi toxin and the pharmacology is consistent with the mediation by m4 receptors. Eckols K. Soc. Neurosci Abstr., 21:2040 (1995)."}}}
{"smiles": "CCCCCCOc1nsnc1C1=CCCN(C)C1", "note": "[Xanomeline, 3-(4-hexyloxy-1,2,5-thiadiazol-3-yl)-1,2,5,6-tetrahydro-1-methylpyridine]", "values": [{"measurement": "Ki", "setting": "[1]", "value": 0.024, "unit": "µM"}, {"measurement": "stimulation of the formation of cAMP", "setting": "m4 receptors", "value": "efficaciously and potently stimulated the formation of cAMP"}]}
